Results as given in patent publication US8106055B2, “Substituted amide compounds” (Gruenenthal GmbH, priority 2007, dated 2012).

Experiments:
[1] = target: T1, human bradykinin 1 receptor (B1R) (Homo sapiens, UniProt P46663); experiment: Functional investigation on the human bradykinin 1 receptor (B1R), Ca2+ FLIPR assay in CHO K1 hB1R cells; type: cell-based; details: test substance 10 μM, Ca2+ FLIPR, CHO K1 hB1R cells; for B1R Ant. h [10 μM] % Inhibition: B1R antagonism human; for inhibition at 10 µM: CHO-K1, B1R antagonism human, read-out: B1R Ant. h [10 μM] % Inhibition
T1 construct: expressed in transfected cells; host or cells: CHO K1 cells
T1 sequence (P46663 1-353): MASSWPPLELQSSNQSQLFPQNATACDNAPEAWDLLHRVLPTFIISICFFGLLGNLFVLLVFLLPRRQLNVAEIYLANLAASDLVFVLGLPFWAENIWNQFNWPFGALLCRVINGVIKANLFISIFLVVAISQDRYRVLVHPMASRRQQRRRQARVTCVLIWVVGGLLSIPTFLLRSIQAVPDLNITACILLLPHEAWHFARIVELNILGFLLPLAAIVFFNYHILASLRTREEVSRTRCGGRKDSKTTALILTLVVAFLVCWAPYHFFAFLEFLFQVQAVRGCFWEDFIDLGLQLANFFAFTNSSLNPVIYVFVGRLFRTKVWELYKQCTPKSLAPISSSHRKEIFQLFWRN
Procedure, shortened: (§1)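 Peak Ca2+-dependent fluorescence in B1R-transfected CHO K1 cells measures antagonism of an EC80 agonist challenge given 10-20 min after compound. Agonist is Lys-Des-Arg9-bradykinin for human, Des-Arg9-bradykinin for rat receptor.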

[2] = target: T2, bradykinin 1 receptor (B1R) of the rat (Rattus norvegicus, UniProt P97583); experiment: Functional investigation on the rat bradykinin 1 receptor (B1R), Ca2+ FLIPR assay in CHO K1 rB1R cells; type: cell-based; details: test substance 10 μM, Ca2+ FLIPR, CHO K1 rB1R cells; for B1R Ant. r [10 μM] % Inhibition: B1R antagonism rat; for inhibition at 10 µM: CHO-K1, B1R antagonism rat, read-out: B1R Ant. r [10 μM] % Inhibition
T2 construct: expressed in transfected cells; host or cells: CHO K1 cells
T2 sequence (P97583 1-337): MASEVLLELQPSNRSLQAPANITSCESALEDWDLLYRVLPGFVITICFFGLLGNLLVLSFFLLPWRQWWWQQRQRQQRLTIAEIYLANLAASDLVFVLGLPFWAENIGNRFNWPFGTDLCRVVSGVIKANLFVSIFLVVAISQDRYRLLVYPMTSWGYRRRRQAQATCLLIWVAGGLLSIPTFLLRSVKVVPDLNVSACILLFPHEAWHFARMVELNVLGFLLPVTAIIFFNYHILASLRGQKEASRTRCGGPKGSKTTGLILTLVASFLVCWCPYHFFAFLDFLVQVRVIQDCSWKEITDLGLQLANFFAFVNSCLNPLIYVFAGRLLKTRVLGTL
Procedure, shortened: as §1

Row | Compound | B1R Ant. h [10 μM] % Inhibition [1] [%] | B1R Ant. r [10 μM] % Inhibition [2] [%] | inhibition at 10 µM [1] [%] | inhibition at 10 µM [2] [%]
1 | COc1cc(C)c(S(=O)(=O)N(C)CCOCC(=O)NC2CCC(C(c3cccc(F)c3)N(C)C)CC2)c(C)c1 (stereo not drawn) [Example 228] | 104 | 99 |  | 
2 | CN(C)C(c1cccc(F)c1)C1CCC(CCNC(=O)COCCN(C)S(=O)(=O)c2ccc(F)cc2)CC1 (stereo not drawn) [Example 218] | 7 | 28 |  | 
3 | CN(C)C(c1ccccc1)C1CCC(NC(=O)COCC2CCCN2S(=O)(=O)c2c(Cl)cc(Cl)cc2Cl)CC1 (stereo not drawn) [Example 611, N-[4-(Dimethylaminophenylmethyl)-cyclohexyl]-2-[1-(2,4,6-trichlorobenzenesulfonyl)-pyrrolidin-2-ylmethoxy]-acetamide] | 97 | 68 |  | 
4 | CCN(CCOCC(=O)NCCC1CCC(C(c2cccc(F)c2)N(C)C)CC1)S(=O)(=O)c1c(C)cc(OC)c(C)c1C (stereo not drawn) [Example 209] | 64 | 60 |  | 
5 | CN(C)C(c1cccc(F)c1)C1CCC(NC(=O)COCCN(C)S(=O)(=O)c2ccc(Cl)cc2Cl)CC1 (stereo not drawn) [Example 217] | 85 | 47 |  | 
6 | COc1ccc(S(=O)(=O)N2CCCCC2COCC(=O)NC2CCC(C(c3cccs3)N(C)C)CC2)cc1OC (stereo not drawn) [Example 261] | −28 | −3 |  | 
7 | Cc1ccc(S(=O)(=O)N2CCC(OCC(=O)NCCC3CCC(C(c4cccc(F)c4)N(C)C)CC3)C2)cc1 (stereo not drawn) [Example 216] | 20 | 12 |  | 
8 | CN(C)C(c1ccc(Cl)cc1)C1CCC(CNC(=O)COCCN(C)S(=O)(=O)c2c(Cl)cccc2Cl)CC1 (stereo not drawn) [Example 207] | 104 | 52 |  | 
9 | Cc1cc(C)c(S(=O)(=O)N2CCC(OCC(=O)NCCC3CCC(C(c4cccc(F)c4)N(C)C)CC3)C2)c(C)c1 (stereo not drawn) [Example 264] | 77 | 59 |  | 
10 | CN(C)C(c1ccccc1)C1CCC(CNC(=O)COCC2CCCN(S(=O)(=O)c3ccccc3)C2)CC1 (stereo not drawn) [Example 129, N((4((dimethylamino)(phenyl)methyl)cyclohexyl)methyl)-2-((1-(phenylsulfonyl)piperidin-3-yl)methoxy)acetamide] | −5 | 0 |  | 
11 | CN(C)C(c1ccccc1)C1CCC(NC(=O)COC2CCCN(S(=O)(=O)c3c(Cl)cc(Cl)cc3Cl)C2)CC1 (stereo not drawn) [Example 608, N-[4-(dimethylaminophenylmethyl)-cyclohexyl]-2-[1-(2,4,6-trichlorobenzenesulfonyl)-piperidin-3-yloxy]-acetamide] |  |  | 78 | 34
12 | CN(C)C(c1ccccc1)C1CCC(NC(=O)COCC2CCCN2S(=O)(=O)c2c(Cl)cc(Cl)cc2Cl)CC1 (stereo not drawn) [Example 613, N-[4-(Dimethylaminophenylmethyl)-cyclohexyl]-2-[1-(2,4,6-trichlorobenzenesulfonyl)-pyrrolidin-2-ylmethoxy]-acetamide] | 66 | 34 |  | 
13 | COc1ccc(S(=O)(=O)N2CCCCC2CCOCC(=O)NCC2CCC(C(c3cccc(F)c3)N(C)C)CC2)cc1 (stereo not drawn) [Example 203] | 42 | 55 |  | 
14 | Cc1ccc(S(=O)(=O)N(C)CCOCC(=O)NC2CCC(C(c3cccc(F)c3)N(C)C)CC2)cc1 (stereo not drawn) [Example 226] | −4 | 24 |  | 
15 | COc1cc(C)c(S(=O)(=O)N2CCC(OCC(=O)NC3CCC(C(c4cccc(F)c4)N(C)C)CC3)C2)c(C)c1 (stereo not drawn) [Example 251] | 81 | 87 |  | 
16 | COc1ccc(S(=O)(=O)N2CCCC2COCC(=O)NC2CCC(C(c3cccc(F)c3)N(C)C)CC2)cc1 (stereo not drawn) [Example 268] | 7 | 25 |  | 
17 | CN(C)C(c1cccc(F)c1)C1CCC(NC(=O)COCC2CCCN(S(=O)(=O)c3ccccc3)C2)CC1 (stereo not drawn) [Example 266] | 4 | 24 |  | 
18 | COc1ccc(S(=O)(=O)N2CCCC2COCC(=O)NCCC2CCC(C(c3cccc(F)c3)N(C)C)CC2)cc1 (stereo not drawn) [Example 224] | 34 | 47 |  | 

Row | Compound | B1R Ant. h [10 μM] % Inhibition [1] [%] | B1R Ant. r [10 μM] % Inhibition [2] [%] | inhibition at 10 µM [1] [%] | inhibition at 10 µM [2] [%]
19 | COc1ccc(S(=O)(=O)N(C)CCOCC(=O)NC2CCC(C(c3cccc(F)c3)N(C)C)CC2)cc1 (stereo not drawn) [Example 250] | 12 | 38 |  | 
20 | CN(C)C(c1cccc(F)c1)C1CCC(NC(=O)COC2CCCN(S(=O)(=O)c3ccccc3)C2)CC1 (stereo not drawn) [Example 277] | 4 | 4 |  | 
21 | Cc1ccc(S(=O)(=O)N(C)CCOCC(=O)NCC2CCC(C(c3cccc(F)c3)N(C)C)CC2)cc1 (stereo not drawn) [Example 227] | 6 | 12 |  | 
22 | CN(C)C(c1ccc(F)cc1)C1CCC(NC(=O)COC2CCCCC2N(C)S(=O)(=O)c2ccc(Cl)c(Cl)c2)CC1 (stereo not drawn) [Example 256] | 52 | 1 |  | 
23 | CN(C)C(c1ccc(F)cc1)C1CCC(CNC(=O)COCCN(C)S(=O)(=O)c2ccc(Cl)cc2Cl)CC1 (stereo not drawn) [Example 249] | 104 | 55 |  | 
24 | CN(C)C(c1ccc(Cl)cc1)C1CCC(CNC(=O)COCCN(C)S(=O)(=O)c2ccc(F)cc2)CC1 (stereo not drawn) [Example 263] | 18 | 32 |  | 
25 | CN(CCOCC(=O)NC1CCC(C(c2ccccc2)N2CCCC2)CC1)S(=O)(=O)c1c(Cl)cc(Cl)cc1Cl (stereo not drawn) [Example 606, 2-{2-[methyl-(2,4,6-trichlorobenzenesulfonyl)-amino]-ethoxy}-N-[4-(phenylpyrrolidin-1-yl-methyl)-cyclohexyl]-acetamide] | 77 |  |  | 37
26 | Cc1ccc(S(=O)(=O)N(C)CCOCC(=O)NC2CCC(C(c3cccs3)N(C)C)CC2)cc1 (stereo not drawn) [Example 168, N-(4-((dimethylamino) (thiophen-2-yl)methyl)cyclohexyl)-2-(2-(N,4-dimethylphenylsulfamido)ethoxy)acetamide] | −5 | 16 |  | 
27 | COc1ccc(S(=O)(=O)N2CCCCC2COCC(=O)NC2CCC(C(c3cccs3)N(C)C)CC2)cc1 (stereo not drawn) [Example 243] | 16 | 27 |  | 
28 | COc1cc(C)c(S(=O)(=O)N2CCC(OCC(=O)NCC3CCC(C(c4cccc(F)c4)N(C)C)CC3)C2)c(C)c1C (stereo not drawn) [Example 252] | 59 | 4 |  | 
29 | COc1cc(C)c(S(=O)(=O)N(CCOCC(=O)NCC2CCC(C(c3ccccc3)N(C)C)CC2)Cc2ccccc2)c(C)c1C (stereo not drawn) [Example 201] | 76 | 7 |  | 
30 | CN(C)C(c1cccc(F)c1)C1CCC(CNC(=O)COC2CCN(S(=O)(=O)c3ccc(Cl)cc3)C2)CC1 (stereo not drawn) [Example 258] | −12 | 12 |  | 
31 | O=C(COCCN(C1CC1)S(=O)(=O)c1c(Cl)cc(Cl)cc1Cl)NC1CCC(C(c2ccccc2)N2CCCC2)CC1 (stereo not drawn) [Example 603, 2-{2-[cyclopropyl-(2,4,6-trichlorobenzenesulfonyl)-amino]-ethoxy}-N-[4-(phenylpyrrolidin-1-ylmethyl)-cyclohexyl]-acetamide] |  |  | 86 | 85
32 | Cc1ccc(S(=O)(=O)N2CCC(OCC(=O)NCCC3CCC(C(c4cccs4)N(C)C)CC3)C2)cc1 (stereo not drawn) [Example 272] | 20 | 32 |  | 
33 | CN(C)C(c1cccc(F)c1)C1CCC(CCNC(=O)COC2CCN(S(=O)(=O)c3ccc(Cl)cc3)C2)CC1 (stereo not drawn) [Example 247] | 4 | 8 |  | 
34 | COc1ccc(S(=O)(=O)N2CCCCC2CCOCC(=O)NCCC2CCC(C(c3cccc(F)c3)N(C)C)CC2)cc1 (stereo not drawn) [Example 213] | 78 | 49 |  | 
35 | CN(C)C(c1cccc(F)c1)C1CCC(NC(=O)COC2CCN(S(=O)(=O)c3ccccc3)C2)CC1 (stereo not drawn) [Example 271] | −7 | −13 |  | 
36 | COc1ccc(S(=O)(=O)N2CCC(OCC(=O)NCC3CCC(C(c4ccc(Cl)cc4)N(C)C)CC3)C2)cc1OC (stereo not drawn) [Example 260] | −7 | 9 |  | 
